Test results reported in ChEMBL document CHEMBL1201862, “PubChem BioAssay data set” (2004).
Calls of active or inactive are those of the source.

What was measured:
HEK293 [1] = test: cells; assay type: functional, cell-based; settings: Homo sapiens
HEK293 [2] = test: cells; assay type: functional, cell-based; settings: Homo sapiens; remark: listed apart in the source
Tumor necrosis factor = Tumor necrosis factor (Homo sapiens, UniProt P01375); test: TNFa-triggered NF-kB activation inhibitors, SAR follow-up, cell-based, revised (AID 2337); assay type: functional
Chain of Tumor necrosis factor (P01375 whole entry): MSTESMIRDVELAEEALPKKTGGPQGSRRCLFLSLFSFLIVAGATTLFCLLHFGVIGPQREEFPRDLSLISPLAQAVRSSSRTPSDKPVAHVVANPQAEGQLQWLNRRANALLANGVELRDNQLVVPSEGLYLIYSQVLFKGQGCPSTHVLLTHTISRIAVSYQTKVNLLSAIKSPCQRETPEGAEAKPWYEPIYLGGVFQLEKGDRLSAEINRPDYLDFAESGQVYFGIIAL

[3] = Shn3 3'UTR reporter inhibitors, dose response, cell-based, Clone20 osteoblasts, firefly luciferase, cherry-picked (AID 624132); assay type: functional;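 further: firefly luciferase luminescence from reporter carrying the Shn3 3'UTR in osteoblasts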
[4] = HepG2 cell cytotoxicity, dose response, cytotoxicity control for Shn3 inhibitor project, CellTiter-Glo, cherry-picked (AID 624134); assay type: functional, cell-based
HEK293 [5] = test: cells; settings: Homo sapiens
[6] = biological target: Nucleotide-binding oligomerization domain-containing protein 2 (Homo sapiens, UniProt Q9HC29); test: NOD2 signaling inhibitors, cell-based, luminescence, uHTS, HEK293 (AID 1566); assay type: functional
HEK293 [7] = test: cells; assay type: functional, cell-based; settings: Homo sapiens; remark: listed apart in the source
[8] = control 3'UTR Renilla luciferase suppression, dose response, counter-screen for Shn3 inhibitor project, cell-based, Clone20-Shn3RL, cherry-picked (AID 624133); assay type: functional
[9] = biological target: Nucleotide-binding oligomerization domain-containing protein 1 (Homo sapiens, UniProt Q9Y239); test: NOD1 signaling inhibitors, SAR follow-up, revised (AID 2333); assay type: functional
Chain of Nucleotide-binding oligomerization domain-containing protein 1 (Q9Y239 whole entry, the tested form may be a part): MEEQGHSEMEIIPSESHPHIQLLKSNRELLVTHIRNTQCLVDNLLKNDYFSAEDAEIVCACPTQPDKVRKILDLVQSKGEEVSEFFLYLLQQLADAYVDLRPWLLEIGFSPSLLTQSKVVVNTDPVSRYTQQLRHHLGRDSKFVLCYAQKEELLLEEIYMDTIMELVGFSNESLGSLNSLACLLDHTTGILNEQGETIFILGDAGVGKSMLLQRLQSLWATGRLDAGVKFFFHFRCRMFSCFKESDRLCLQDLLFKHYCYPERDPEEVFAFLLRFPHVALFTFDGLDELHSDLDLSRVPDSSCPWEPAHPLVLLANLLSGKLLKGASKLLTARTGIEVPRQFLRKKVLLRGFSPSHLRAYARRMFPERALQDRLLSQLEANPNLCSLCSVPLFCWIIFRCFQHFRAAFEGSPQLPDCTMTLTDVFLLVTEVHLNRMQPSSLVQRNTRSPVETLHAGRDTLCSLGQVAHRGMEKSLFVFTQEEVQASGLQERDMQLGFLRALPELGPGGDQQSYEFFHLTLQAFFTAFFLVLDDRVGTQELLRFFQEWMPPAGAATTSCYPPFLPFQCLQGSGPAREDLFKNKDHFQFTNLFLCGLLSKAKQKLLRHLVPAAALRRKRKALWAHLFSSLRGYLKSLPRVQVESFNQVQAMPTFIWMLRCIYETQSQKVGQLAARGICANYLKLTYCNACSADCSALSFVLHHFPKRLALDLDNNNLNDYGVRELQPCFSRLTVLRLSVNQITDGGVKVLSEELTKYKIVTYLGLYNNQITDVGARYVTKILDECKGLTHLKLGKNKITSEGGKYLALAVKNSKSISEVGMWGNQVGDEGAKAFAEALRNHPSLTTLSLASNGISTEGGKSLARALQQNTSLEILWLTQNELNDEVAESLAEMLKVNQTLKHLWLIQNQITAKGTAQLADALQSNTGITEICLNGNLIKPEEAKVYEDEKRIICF

HEK293 [10] = test: NOD1 signaling inhibitors, primary screen, cell-based, luminescence, uHTS (AID 1578); assay type: functional; settings: Homo sapiens
Paired box protein Pax-8 = Paired box protein Pax-8 (Homo sapiens, UniProt Q06710); test: inhibitors of PAX8-driven TPO luciferase reporter, dose response, RMG-I cells, cherry-pick (AID 687027); assay type: functional, cell-based;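 further: luciferase reporter driven by Pax8 target thyroperoxidase promoter measured by SteadyGlo luminescence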
Chain of Paired box protein Pax-8 (Q06710 whole entry): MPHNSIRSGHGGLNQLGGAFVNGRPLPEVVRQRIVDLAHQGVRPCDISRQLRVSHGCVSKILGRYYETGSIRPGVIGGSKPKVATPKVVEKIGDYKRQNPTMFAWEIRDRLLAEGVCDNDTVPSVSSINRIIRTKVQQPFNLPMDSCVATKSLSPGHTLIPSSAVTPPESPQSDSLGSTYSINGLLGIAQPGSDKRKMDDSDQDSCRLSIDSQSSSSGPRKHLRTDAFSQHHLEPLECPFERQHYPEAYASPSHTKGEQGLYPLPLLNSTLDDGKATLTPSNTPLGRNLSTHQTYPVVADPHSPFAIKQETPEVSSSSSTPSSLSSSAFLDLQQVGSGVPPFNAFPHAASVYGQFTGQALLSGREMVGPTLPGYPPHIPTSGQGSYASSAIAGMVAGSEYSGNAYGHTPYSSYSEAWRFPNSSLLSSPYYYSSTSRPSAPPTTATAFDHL

HEK293 [11] = test: NOD2 signaling inhibitors in MDP-stimulated cells, cell-based, uHTS, luminescence (AID 2001); assay type: functional; settings: Homo sapiens
[12] = biological target: DNA dC->dU-editing enzyme APOBEC-3G (Homo sapiens, UniProt Q9HC16); test: Dose Response confirmation of small molecule APOBEC3G DNA Deaminase Inhibitors via a fluorescence-based single-stranded DNA deaminase assay. [Related pubchem assays (depositor defined):AID493012, AID493028]; assay type: functional
Chain of DNA dC->dU-editing enzyme APOBEC-3G (Q9HC16 whole entry): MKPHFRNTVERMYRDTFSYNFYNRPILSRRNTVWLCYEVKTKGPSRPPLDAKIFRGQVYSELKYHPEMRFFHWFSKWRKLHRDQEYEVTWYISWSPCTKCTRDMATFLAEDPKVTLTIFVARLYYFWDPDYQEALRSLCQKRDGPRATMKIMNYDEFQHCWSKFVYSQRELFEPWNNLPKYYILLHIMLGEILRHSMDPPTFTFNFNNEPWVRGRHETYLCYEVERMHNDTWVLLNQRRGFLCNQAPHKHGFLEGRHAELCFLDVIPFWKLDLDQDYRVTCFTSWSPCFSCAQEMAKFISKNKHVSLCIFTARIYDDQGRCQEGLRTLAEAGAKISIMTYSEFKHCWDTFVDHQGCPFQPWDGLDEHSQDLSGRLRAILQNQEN

[13] = biological target: T1, Mannose-6-phosphate isomerase (Homo sapiens, UniProt P34949); test: PMI enzyme inhibitors, confirmation, biochemical, fluorescence intensity (AID 1535)
T1 sequence (P34949 whole entry): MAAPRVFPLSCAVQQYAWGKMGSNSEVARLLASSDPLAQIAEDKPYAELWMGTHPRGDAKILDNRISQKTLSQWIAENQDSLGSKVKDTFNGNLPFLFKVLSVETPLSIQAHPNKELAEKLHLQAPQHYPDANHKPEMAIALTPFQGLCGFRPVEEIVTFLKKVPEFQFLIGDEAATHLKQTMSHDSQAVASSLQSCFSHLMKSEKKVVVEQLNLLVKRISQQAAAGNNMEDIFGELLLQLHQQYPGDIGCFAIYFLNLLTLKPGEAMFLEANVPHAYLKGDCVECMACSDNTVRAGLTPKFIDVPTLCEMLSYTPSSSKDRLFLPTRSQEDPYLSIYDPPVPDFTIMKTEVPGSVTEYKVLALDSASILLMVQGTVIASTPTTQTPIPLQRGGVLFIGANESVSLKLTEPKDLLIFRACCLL

[14] = biological target: T1, Mannose-6-phosphate isomerase; test: inhibitors of human PMI, primary screen, biochemical, fluorescence intensity, coupled assay (AID 1209)
Phosphomannomutase 2 = Phosphomannomutase 2 (Homo sapiens, UniProt O15305); test: Counter screen SAR assay for PMM2 inhibitors via a fluorescence intensity assay. [Related pubchem assays (depositor defined):AID1545, AID1574]
[15] = biological target: DNA dC->dU-editing enzyme APOBEC-3A (Homo sapiens, UniProt P31941); test: APOBEC3A DNA deaminase inhibitors, dose response, biochemical (AID 504722); assay type: functional
Chain of DNA dC->dU-editing enzyme APOBEC-3A (P31941 whole entry): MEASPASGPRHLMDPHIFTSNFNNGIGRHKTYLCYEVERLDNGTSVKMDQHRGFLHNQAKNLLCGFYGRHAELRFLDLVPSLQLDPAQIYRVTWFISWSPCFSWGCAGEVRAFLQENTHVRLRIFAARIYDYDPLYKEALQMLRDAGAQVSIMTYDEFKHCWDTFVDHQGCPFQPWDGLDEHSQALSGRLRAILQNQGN

[16] = cytotoxicity in HEK-293T cells, dose response, cytotoxicity control for TCR NF-kB inhibitor project, luminescence, T-cell screen hits (AID 489026); assay type: functional, cell-based;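 further: cells exposed to compound about 14 hours before the viability readout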
[17] = cytotoxicity in MIN6 insulinoma cells, dose response, cytotoxicity control, cell-based, mouse insulinoma (AID 2122); assay type: functional;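 further: confirmatory high-throughput counterscreen run to flag cytotoxic compounds; mouse MIN-6 beta cells carrying an insulin promoter eGFP reporter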
[18] = insulin promoter down-regulators in MIN6 cells, imaging, high-content screening, mouse beta cells (AID 1628); assay type: functional
Cannabinoid receptor 1 [19] = biological target: T2, Cannabinoid receptor 1 (Homo sapiens, UniProt P21554); test: SAR analysis of antagonists of the Cannabinoid Receptor 1 using an Image-Based Assay - Set 2. [Related pubchem assays (depositor defined):AID2013, AID2026]; assay type: functional
T2 sequence (P21554 whole entry): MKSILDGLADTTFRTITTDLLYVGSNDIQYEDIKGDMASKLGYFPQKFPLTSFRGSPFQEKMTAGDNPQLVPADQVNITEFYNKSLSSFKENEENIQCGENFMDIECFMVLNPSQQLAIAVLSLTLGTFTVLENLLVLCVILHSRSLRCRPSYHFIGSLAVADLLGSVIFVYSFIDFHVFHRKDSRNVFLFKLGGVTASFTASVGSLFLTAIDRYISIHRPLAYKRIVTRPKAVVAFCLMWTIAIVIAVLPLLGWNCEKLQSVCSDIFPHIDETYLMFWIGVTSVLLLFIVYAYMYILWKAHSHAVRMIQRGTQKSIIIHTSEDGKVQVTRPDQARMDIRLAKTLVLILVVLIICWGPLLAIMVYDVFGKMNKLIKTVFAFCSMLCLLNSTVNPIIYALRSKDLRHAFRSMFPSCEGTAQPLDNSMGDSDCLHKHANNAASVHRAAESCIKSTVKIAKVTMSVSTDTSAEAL

[20] = biological target: T3, G-protein coupled receptor 35 (Homo sapiens, UniProt Q9HC97); test: SAR analysis of Agonists of the GPR35 Receptor using an Image-Based Assay - Set 2. [Related pubchem assays (depositor defined):AID2013, AID2026]; assay type: functional
T3 sequence (Q9HC97 whole entry): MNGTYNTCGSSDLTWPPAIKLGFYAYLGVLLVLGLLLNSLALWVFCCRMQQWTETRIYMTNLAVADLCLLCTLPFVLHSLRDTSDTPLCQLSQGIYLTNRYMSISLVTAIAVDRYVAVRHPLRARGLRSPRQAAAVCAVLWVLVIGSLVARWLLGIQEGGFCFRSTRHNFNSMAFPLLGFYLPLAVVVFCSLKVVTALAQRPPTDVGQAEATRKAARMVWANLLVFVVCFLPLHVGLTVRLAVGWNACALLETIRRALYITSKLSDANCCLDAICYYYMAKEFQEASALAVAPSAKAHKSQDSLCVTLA

[21] = biological target: T4, G-protein coupled receptor 55 (Homo sapiens, UniProt Q9Y2T6); test: GPR55 antagonists blocking LPI-driven arrestin recruitment, primary screen, imaging, U2OS, beta-arrestin-GFP, LPI agonist (AID 2013); assay type: functional;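 further: antagonist potency measured as reduced agonist-driven arrestin aggregation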
T4 sequence (Q9Y2T6 whole entry): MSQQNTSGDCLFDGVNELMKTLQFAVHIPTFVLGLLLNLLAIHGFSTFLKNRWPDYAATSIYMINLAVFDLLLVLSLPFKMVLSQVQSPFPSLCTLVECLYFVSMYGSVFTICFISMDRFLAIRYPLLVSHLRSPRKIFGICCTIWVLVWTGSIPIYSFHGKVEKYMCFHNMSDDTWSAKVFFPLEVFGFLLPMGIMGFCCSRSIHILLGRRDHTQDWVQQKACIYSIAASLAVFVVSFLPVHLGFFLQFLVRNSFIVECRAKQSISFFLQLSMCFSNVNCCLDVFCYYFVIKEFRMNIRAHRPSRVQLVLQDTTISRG

Cannabinoid receptor 1 [22] = biological target: T2, Cannabinoid receptor 1; test: SAR analysis of agonists of the Cannabinoid Receptor 1 using an Image-Based Assay - Set 2. [Related pubchem assays (depositor defined):AID2013, AID2026]; assay type: functional
Cannabinoid receptor 2 [23] = biological target: T5, Cannabinoid receptor 2 (Homo sapiens, UniProt P34972); test: SAR analysis of agonists of the Cannabinoid Receptor 2 using an Image-Based Assay. [Related pubchem assays (depositor defined):AID2013, AID2026]; assay type: functional
T5 sequence (P34972 whole entry): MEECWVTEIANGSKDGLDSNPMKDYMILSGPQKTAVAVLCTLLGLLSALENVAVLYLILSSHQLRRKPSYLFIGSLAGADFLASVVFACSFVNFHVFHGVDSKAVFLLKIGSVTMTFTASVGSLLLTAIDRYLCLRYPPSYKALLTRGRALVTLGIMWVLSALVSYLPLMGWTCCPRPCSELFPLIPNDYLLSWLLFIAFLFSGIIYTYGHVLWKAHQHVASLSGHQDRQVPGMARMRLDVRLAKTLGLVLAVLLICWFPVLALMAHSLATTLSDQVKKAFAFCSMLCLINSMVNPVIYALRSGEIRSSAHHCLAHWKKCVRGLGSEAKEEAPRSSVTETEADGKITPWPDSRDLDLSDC

[24] = biological target: T3, G-protein coupled receptor 35; test: SAR analysis of Antagonists of the GPR35 Receptor using an Image-Based Assay - Set 3. [Related pubchem assays (depositor defined):AID2013, AID2026]; assay type: functional
Cannabinoid receptor 2 [25] = biological target: T5, Cannabinoid receptor 2; test: SAR analysis of agonists of the Cannabinoid Receptor 2 using an Image-Based Assay - Set 3. [Related pubchem assays (depositor defined):AID2013, AID2026]; assay type: functional
Cannabinoid receptor 2 [26] = biological target: T5, Cannabinoid receptor 2; test: SAR analysis of antagonists of the Cannabinoid Receptor 2 using an Image-Based Assay - Set 3. [Related pubchem assays (depositor defined):AID2013, AID2026]; assay type: functional
Cannabinoid receptor 2 [27] = biological target: T5, Cannabinoid receptor 2; test: SAR analysis of antagonists of the Cannabinoid Receptor 2 using an Image-Based Assay. [Related pubchem assays (depositor defined):AID2013, AID2026]; assay type: functional
[28] = biological target: T4, G-protein coupled receptor 55; test: SAR Analysis of Selective Antagonists of GPR55 using an Image-Based Assay - Set 4. [Related pubchem assays (depositor defined):AID2013, AID2026]; assay type: functional
[29] = biological target: T4, G-protein coupled receptor 55; test: GPR55 antagonist potency of analogs, SAR follow-up, imaging, U2OS, beta-arrestin-GFP, LPI agonist, set 2 (AID 2820); assay type: functional
Cannabinoid receptor 1 [30] = biological target: T2, Cannabinoid receptor 1; test: SAR analysis of antagonists of the Cannabinoid Receptor 1 using an Image-Based Assay - Set 4. [Related pubchem assays (depositor defined):AID2013, AID2026]; assay type: functional
[31] = biological target: T6, RNA-binding protein pos-1 (Caenorhabditis elegans, UniProt G5EF15); test: inhibitors of POS-1/mex-3 RNA binding, dose response, biochemical, fluorescence polarization (AID 1964);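 further: purified POS-1 fused to maltose binding protein made in E. coli; potency of compounds blocking POS-1 binding to fluorescent RNA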
T6 sequence (G5EF15 whole entry): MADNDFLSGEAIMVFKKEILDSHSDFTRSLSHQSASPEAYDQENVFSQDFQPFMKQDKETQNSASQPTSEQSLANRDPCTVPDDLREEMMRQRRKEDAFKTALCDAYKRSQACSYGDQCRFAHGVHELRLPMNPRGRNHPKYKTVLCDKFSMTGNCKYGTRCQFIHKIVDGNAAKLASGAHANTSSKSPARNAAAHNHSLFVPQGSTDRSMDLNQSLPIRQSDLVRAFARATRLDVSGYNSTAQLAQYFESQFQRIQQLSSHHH

[32] = biological target: Intestinal-type alkaline phosphatase (Homo sapiens, UniProt P09923); test: activation of human intestinal alkaline phosphatase – biochemical, dose response (AID 488873); assay type: functional
Chain of Intestinal-type alkaline phosphatase (Homo sapiens, UniProt P09923) (P09923 whole entry): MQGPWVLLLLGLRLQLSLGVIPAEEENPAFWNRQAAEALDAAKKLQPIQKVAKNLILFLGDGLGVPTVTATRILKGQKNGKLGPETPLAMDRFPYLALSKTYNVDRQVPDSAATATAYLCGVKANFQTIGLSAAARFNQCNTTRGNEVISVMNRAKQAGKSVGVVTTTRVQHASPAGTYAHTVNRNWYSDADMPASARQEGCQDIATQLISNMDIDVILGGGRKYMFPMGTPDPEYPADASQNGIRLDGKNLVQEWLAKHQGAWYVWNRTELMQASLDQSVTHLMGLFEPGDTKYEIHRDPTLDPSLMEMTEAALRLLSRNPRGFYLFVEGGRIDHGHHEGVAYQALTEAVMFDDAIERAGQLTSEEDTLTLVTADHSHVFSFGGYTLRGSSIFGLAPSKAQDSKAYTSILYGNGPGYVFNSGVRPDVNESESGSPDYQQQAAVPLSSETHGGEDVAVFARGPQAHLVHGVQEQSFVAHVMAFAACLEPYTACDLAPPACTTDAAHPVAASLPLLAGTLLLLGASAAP

[33] = biological target: T7, Alkaline phosphatase, tissue-nonspecific isozyme (Homo sapiens, UniProt P05186); test: TNAP enzyme activators, dose response, selectivity assay for mouse IAP activator project, biochemical, TNAP isozyme, mouse IAP uHTS hits (AID 488880); assay type: functional
T7 sequence (P05186 whole entry): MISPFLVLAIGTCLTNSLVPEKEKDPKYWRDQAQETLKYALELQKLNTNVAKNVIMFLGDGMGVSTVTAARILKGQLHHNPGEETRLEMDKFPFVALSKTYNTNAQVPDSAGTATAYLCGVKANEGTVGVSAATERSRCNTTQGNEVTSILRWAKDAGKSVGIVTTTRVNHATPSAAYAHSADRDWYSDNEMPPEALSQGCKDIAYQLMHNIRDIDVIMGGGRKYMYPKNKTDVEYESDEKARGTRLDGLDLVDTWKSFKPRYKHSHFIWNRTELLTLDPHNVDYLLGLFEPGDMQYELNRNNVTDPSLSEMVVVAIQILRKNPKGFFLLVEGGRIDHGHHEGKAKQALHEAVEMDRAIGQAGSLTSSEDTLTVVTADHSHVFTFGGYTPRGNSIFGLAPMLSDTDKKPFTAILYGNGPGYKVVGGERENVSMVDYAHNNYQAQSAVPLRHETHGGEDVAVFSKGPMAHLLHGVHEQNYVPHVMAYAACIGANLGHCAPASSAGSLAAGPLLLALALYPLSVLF

[34] = biological target: T8, Zinc finger protein mex-5 (Caenorhabditis elegans, UniProt Q9XUB2); test: MEX-5/TCR-2 RNA interaction inhibitors, dose response, biochemical, C. elegans, fluorescence polarization (AID 1960)
T8 sequence (Q9XUB2 whole entry): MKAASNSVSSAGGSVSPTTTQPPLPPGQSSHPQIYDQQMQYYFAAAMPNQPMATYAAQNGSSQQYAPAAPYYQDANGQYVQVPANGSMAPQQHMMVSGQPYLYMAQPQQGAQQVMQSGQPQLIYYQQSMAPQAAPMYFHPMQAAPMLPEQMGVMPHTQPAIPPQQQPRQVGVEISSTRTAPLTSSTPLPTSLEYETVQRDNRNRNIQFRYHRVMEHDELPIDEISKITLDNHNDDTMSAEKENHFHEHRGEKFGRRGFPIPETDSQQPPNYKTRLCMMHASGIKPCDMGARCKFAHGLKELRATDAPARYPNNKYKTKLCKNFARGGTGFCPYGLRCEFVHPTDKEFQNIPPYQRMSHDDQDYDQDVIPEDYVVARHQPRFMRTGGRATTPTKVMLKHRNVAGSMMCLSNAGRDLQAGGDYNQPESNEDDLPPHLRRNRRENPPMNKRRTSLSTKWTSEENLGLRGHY

[35] = biological target: Intestinal-type alkaline phosphatase (Mus musculus, UniProt P24822); test: mouse intestinal alkaline phosphatase activators, dose response, biochemical, luminescence, uHTS hits (AID 488783); assay type: functional
Chain of Intestinal-type alkaline phosphatase (Mus musculus, UniProt P24822) (P24822 whole entry): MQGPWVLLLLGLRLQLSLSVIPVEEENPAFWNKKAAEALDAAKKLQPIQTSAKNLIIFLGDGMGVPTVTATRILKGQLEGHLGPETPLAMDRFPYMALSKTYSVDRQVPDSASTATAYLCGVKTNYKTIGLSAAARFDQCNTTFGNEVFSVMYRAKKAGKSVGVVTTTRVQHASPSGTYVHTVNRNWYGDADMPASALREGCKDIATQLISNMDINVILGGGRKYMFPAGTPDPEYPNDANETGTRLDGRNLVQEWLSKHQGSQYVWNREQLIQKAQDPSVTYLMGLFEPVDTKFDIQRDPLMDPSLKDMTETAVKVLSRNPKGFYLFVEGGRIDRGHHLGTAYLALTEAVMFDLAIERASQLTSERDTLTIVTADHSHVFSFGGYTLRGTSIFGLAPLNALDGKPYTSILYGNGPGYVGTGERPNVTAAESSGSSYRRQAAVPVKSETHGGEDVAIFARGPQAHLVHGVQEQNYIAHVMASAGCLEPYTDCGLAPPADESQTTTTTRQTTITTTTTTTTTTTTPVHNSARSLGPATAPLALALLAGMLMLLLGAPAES

With `Cc1ccc(S(=O)(=O)NCc2ccc(C(=O)N3CCN(c4ccc([N+](=O)[O-])cc4)CC3)cc2)cc1` the IC50 (HEK293 [1]) was 16.2 µM (active), the IC50 (HEK293 [2]) was 4.67 µM (active) and the IC50 (Tumor necrosis factor) was 11.4 µM (active). For the same compound, the AC50 [3] was 3.79 µM (active), the AC50 [4] was 39.8 µM (active) and the IC50 (HEK293 [5]) was > 20 µM (inactive). The EC50 [6] was 6.65 µM (active), the IC50 (HEK293 [7]) was > 20 µM (inactive) and the AC50 [8] was 11.7 µM (active). For the same compound, the IC50 [9] was 9.8 µM (active), the EC50 (HEK293 [10]) was 4.26 µM (active) and the AC50 (Paired box protein Pax-8) was 6.91 µM (active). For the same compound, the IC50 (HEK293 [11]) was 7.59 µM (active).
With `Cc1ccc(C)n1-c1n[nH]c(=S)[nH]1` the IC50 [12] was 6.12 µM (active), the IC50 [13] was 41.8 µM (active) and the IC50 [14] was 13.7 µM (active). The IC50 (Phosphomannomutase 2) was > 100 µM (inactive) and the IC50 [15] was > 100 µM (inactive).
For `COc1ccc(Br)cc1/C(C)=N/NC1=NCCN1`, the IC50 [16] was > 80 µM (inactive), the IC50 [17] was 3.47 µM (active) and the IC50 [18] was 4.74 µM (active).
For `CCOC(=O)c1cc2c(=O)n3ccccc3nc2n(Cc2ccccc2)c1=N`, the IC50 (Cannabinoid receptor 1 [19]) was > 32 µM (inactive), the EC50 [20] was > 32 µM (inactive) and the IC50 [21] was < 0.5 µM (active). The EC50 (Cannabinoid receptor 1 [22]) was > 32 µM (inactive), the EC50 (Cannabinoid receptor 2 [23]) was > 32 µM (inactive) and the IC50 [24] was > 32 µM (inactive). For the same compound, the EC50 (Cannabinoid receptor 2 [25]) was > 32 µM (inactive), the IC50 (Cannabinoid receptor 2 [26]) was > 32 µM (inactive) and the IC50 (Cannabinoid receptor 2 [27]) was > 32 µM (inactive). The IC50 [28] was > 32 µM (inactive), the IC50 [29] was 0.878 µM (active) and the IC50 (Cannabinoid receptor 1 [30]) was 0.069 µM (active).
With `Cc1ccc(N2C(=O)/C(=C/c3ccc(CN(CCC#N)S(C)(=O)=O)o3)C(=O)NC2=S)cc1` the EC50 [31] was > 300 µM (not active), the EC50 [32] was 36.2 µM (active) and the EC50 [33] was 40.4 µM (active). The EC50 [34] was 37.8 µM (active) and the EC50 [35] was 80.5 µM (active).
